Measurements reported in patent US10183032B2, “Methods for treating bacterial infection” (Ball State Innovation Corporation, priority 2012, dated 2019).
Where two headings read alike, the source gives them in different places.

How the values were obtained:
host cell = assay: Host cell cytotoxicity in vitro (preliminary data); format: cell-based
Streptococcus pyogenes = Streptococcus pyogenes invasion assay in HUVEC, CFU recovery; format: cell-based; conditions: for inhibition at 10 µM: Streptococcus pyogenes, HUVEC
Experimental: FIG. 12 is a graph illustrating that ML 141 inhibition of cell invasion by S. pyogenes is reversible. HUVEC were pretreated with ML 141 (10 μM) or with dimethyl sulfoxide (DMSO) as the vehicle control (1 h). Following pretreatment, ML 141-containing media was removed from the washout samples and replaced with DMSO-containing media for 60 min prior to incubation with Streptococcus pyogenes at a multiplicity of infection of 30 (2 h). Extracellular bacteria were removed by gentamicin, an antimicrobial with limited mammalian membrane permeability. Intracellular bacteria were released from HUVEC into the medium by incubation in cold water (5 min). Serial dilutions were incubated (16 h) on Todd Hewitt broth/blood agar plates and colonies enumerated to determine colony forming units (CFU)/ml (*P<0.05 by one-way ANOVA followed by Student-Newman-Keuls post-hoc analysis; n=4/treatment).
Human umbilical vein endothelial cells (HUVEC, EMD Millipore, Billerica, Mass., SCCE001) were cultured in EndoGRO-LS complete media (EMD Millipore, SCME001) and maintained in 75 cm^2 vented cap flasks (Thermo-Fisher Scientific, Pittsburgh, Pa., 10-126-37) at 37° C./5% CO2. Streptococcus pyogenes (90-226, M1+) was cultured in Todd Hewitt broth (THB, Thermo-Fisher Scientific, DF0492-17-6) and grown at 37° C. with no shaking.
Two days prior to infection, S. pyogenes were cultured in 5 ml THB 18-24 h from a single colony grown on THB/blood (Cleveland Scientific, Bath, Ohio, SBCIT-100) agar (Moorhead & Company, Rocklin, Calif., gelidium), and 10 μl subcultured 18 h prior to infection. HUVEC were seeded in 24-well plates (Sigma-Aldrich, St. Louis, Mo., CLS3524) that had been coated with Attachment Factor (Life Technologies, Carlsbad, Calif., S006100) for 30 min at 37° C./5% CO2. HUVEC were plated at a density of 1.5×10^5 cells/well. For infection, S. pyogenes were harvested by centrifugation, 37° C./3 min/10,000 RPM, washed, and resuspended in fresh 0.85% saline (NaCl, Thermo-Fisher Scientific, S-271-500). Bacteria were diluted to 4.8×10^8 colony forming units (CFU)/ml and incubated at 37° C./5% CO2 with HUVEC at multiplicity of infection and for duration indicated in each figure or table. CFU of 90-226 S. pyogenes had been determined from a growth curve, fitting an OD600 of 0.5 to 4.8×10^8 CFU/ml. After infection, each well was washed three times with sterile 1× phosphate buffered saline (PBS, Life Technologies, 20012043) to remove unattached S. pyogenes. HUVEC were then incubated at 37° C., 5% CO2 for 45 min in 10% fetal bovine serum (FBS, Atlanta Biologicals, Flowery Branch, Ga., S111S0)/PBS containing 500 μg/ml gentamicin (Sigma-Aldrich, G1272). Following the incubation with gentamicin to remove extracellular bacteria, HUVEC were washed three times with PBS. Sterile distilled ice-cold water (Life Technologies, 15230-162) was added to each well for 5 min at room temperature (RT) to permeabilize the host cells. Serial dilutions of this bacteria-containing water were performed in saline, plated on THB/blood agar, and incubated for 18-20 h at 37° C. The following day, colonies were counted to determine CFU/ml recovered from invasion.

[1] = tested on: Human umbilical vein endothelial cells; assay: Transmission electron microscopy of infected HUVEC; format: cell-based; conditions: ML 141 10 μM, S. aureus MOI 30, 2 h
Experimental: FIG. 9 is an image depicting ML 141 limiting damage to host cells. Human umbilical vein endothelial cells were incubated with the vehicle control polyethylene glycol (PEG) or with ML 141 (10 μM) 18-20 h prior to infection with Staphylococcus aureus at a multiplicity of infection of 30 (2 h). Following infection, extracellular bacteria were removed by incubating with lysostaphin and gentamicin (45 min), antimicrobials with limited mammalian membrane permeability. Antimicrobial-containing media was replenished and incubation extended an additional 24 h. Cells were fixed, stained, and examined by transmission electron microscopy. White arrow indicates mitochondria. Black arrow indicates filopodia. White arrowhead indicates membranous structure surrounding bacteria. Black arrowhead indicates dividing bacteria. Scale bar is 5 μm.
HUVEC were plated onto glass coverslips at […], pretreated and infected at a multiplicity of infection (MOI) of 30 for 2 h. Extracellular bacteria were removed and cells incubated for an additional 24 h in media containing antibiotics. […]

β1 integrin subunit = assay: β1 integrin surface expression in HUVEC, flow cytometry; format: cell-based, human; conditions: ML 141 10 μM versus DMSO
Experimental: FIG. 10B is a graph illustrating that expression of the […] integrin subunit remains substantially unchanged in HUVEC incubated with DMSO or ML 141 (10 μM). Pretreated HUVEC were stained with PE conjugated anti-β1 and examined using flow cytometry (no difference between groups was detected, t-test, p>0.05).
To examine β1 surface expression, recycling of the integrin was terminated (4° C., 15 min) and HUVEC lifted from plates using cell scrapers. After washing in FACS buffer (2% BSA/0.1% sodium azide/PBS), cells were incubated with PE-conjugated anti-β1 (BD; 30 min, on ice), washed, fixed in FACS buffer containing 4% paraformaldehyde, and analyzed using an Accuri C6 flow cytometer (BD).

## COc1ccc(C2CC(c3ccccc3)=NN2c2ccc(S(N)(=O)=O)cc2)cc1 (stereo not shown) [ML 141, 4-[3-(4-methoxyphenyl)-5-phenyl-3,4-dihydropyrazol-2-yl]benzenesulfonamide]
Host cell
  concentration at which host cell cytotoxicity was undetectable: below 30 μM
Streptococcus pyogenes; ML 141 10 μM 1 h, washout 60 min, MOI 30, 2 h
  reversibility of inhibition of S. pyogenes invasion: reversible
Streptococcus pyogenes; ML 141 10 μM added 1 hour post-infection, 2 h, MOI 0.25
  % Inhibition (± SEM): No difference
Streptococcus pyogenes; ML 141 10 μM added at time of infection, 2 h, MOI 30
  % Inhibition (± SEM): No difference
Streptococcus pyogenes; 2 h, read-out: % Inhibition (± SEM), ML 141 10 μM added at time of infection, 2 h, MOI 0.25 (first line)
  inhibition at 10 µM: 81 ± 7%
Streptococcus pyogenes; 2 h, read-out: % Inhibition (± SEM), ML 141 10 μM added at time of infection, 2 h, MOI 0.25 (second line)
  inhibition at 10 µM: 62 ± 10%
Streptococcus pyogenes; read-out: % Inhibition (± SEM), ML 141 10 μM added 18-20 hours pre-infection, duration of infection 2 h, MOI 30
  inhibition at 10 µM: 96 ± 4%
Streptococcus pyogenes; read-out: % Inhibition (± SEM), ML 141 10 μM added 1 hour post-infection, 2 h, MOI 0.0025
  inhibition at 10 µM: 92 ± 6%
[1]
  host cell ultrastructure 24 h post-invasion (organelles): remained intact
β1 integrin subunit
  expression of β1 integrin subunit: no difference
